Experimental data from publication PMC7899671 (eLife, 2021).

Assays:
[1] = molecular target: T1, α1L9'T/V279Dβ2γ2L GABAA receptor (L9'T/V279D) (Rattus norvegicus, UniProt P18508+P62813+P63138, INS375LLRMFSFK/L290T/V306D); format: cell-based
T1 construct: expressed in transfected cells; host or cells: Xenopus laevis oocytes injected with mRNA (α:β:γ 1:1:10)
Source text: (§1) The M2–M3 linker has both high sequence and structural similarity in pLGICs. The valine at position 279 in the GABAAR α1 subunit is located near the center of the linker and is nearly always an aliphatic residue in different GABAAR subunits as well as in subunits of other pLGICs, with the exception of AChR, where it is a threonine. Even where sequences differ, structural models of the M2–M3 linker for multiple pLGICs are highly similar.
(§2) DNA for wild-type GABAAR rat α1, β2, and γ2L subunits were a gift from Dr. Cynthia Czajkowski. Single alanine substitutions were introduced throughout the α1M2–M3 linker from L276-T283 in addition to the gain of function α1L9'T pore mutation (rat α1L263T) (QuikChange II, […]). Mutations V279D and V279W were introduced similarly. Each construct was verified by forward and reverse sequencing of the entire gene. mRNA for each construct was generated (mMessage mMachine T7, Ambion) for expression in X. laevis oocytes (EcoCyte Bioscience, Austin, TX). Oocytes were injected with 27–54 ng of total mRNA for α, β, and γ subunits in a 1:1:10 ratio ([Boileau et al., 2002]) (Nanoject, Drummond Scientific). Oocytes were incubated in ND96 (in mM: 96 NaCl, 2 KCl, 1 MgCl2, 1.8 CaCl2, 5 HEPES, pH 7.2) with […] gentamicin at 18°C.
(§3) Currents from expressed channels 1–3 days post-injection were recorded in two-electrode voltage clamp (Dagan TEV-200, HEKA ITC and Patchmaster software). […] PTX was diluted from a 1 M stock solution in DMSO. […] Recorded currents were analyzed with custom scripts in MATLAB (Mathworks). Recordings of concentration–response relationships were bookended by pulses of PTX to correct for any drift or rundown during the experiment. Briefly, currents were baseline subtracted to correct for drift and then scaled by a linear fit to the peak of each PTX response to correct for rundown (Figure 2—figure supplement 1).
(§4) where I is the peak current response, X is ligand concentration, EC50 is the concentration eliciting a half-maximal response, and n is the Hill slope.

[2] = molecular target: T2, α1L9'T/V279Wβ2γ2L GABAA receptor (L9'T/V279W) (Rattus norvegicus, UniProt P18508+P62813+P63138, INS375LLRMFSFK/L290T/V306W); format: cell-based
T2 construct: expressed in transfected cells; host or cells: Xenopus laevis oocytes injected with mRNA (α:β:γ 1:1:10)
Source text: as §1, §2, §3, §4

[3] = molecular target: α1L9'Tβ2γ2L, α1L9'T/V279Aβ2γ2L, and α1β2γ2L receptors; experiment: MWC model of channel gating, global fit to estimated open probability; conditions: MWC model parameter, global optimisation
[4] = molecular target: T3, α1L9'T/T283Aβ2γ2L GABAA receptor (L9'T/T283A) (Rattus norvegicus, UniProt P18508+P62813+P63138, INS375LLRMFSFK/L290T/T310A); format: cell-based
T3 construct: expressed in transfected cells; host or cells: Xenopus laevis oocytes injected with mRNA (α:β:γ 1:1:10)
Source text: (§5) We use the gain of function mutation α1L9'T that confers spontaneous channel gating in the absence of agonist that can be further modulated by BZDs ([Scheller and Forman, 2002]; [Chang and Weiss, 1999]). The primary purpose for this mutation is to enable macroscopic current responses to report on pore gating by a BZD in the absence of agonist. […] We restricted the scan primarily to the flexible loop between helical regions associated with M2 and M3 from α1L276-T283 (Figure 1; Figure 1—figure supplement 1). Two of these positions, α1A280 and α1A282, are natively alanine and were not mutated. Briefly, Xenopus laevis oocytes were co-injected with mRNA for α, β, and γ subunits in a 1:1:10 ratio, and current responses to microfluidic application of ligands were recorded in two-electrode voltage clamp. […] Current block by the pore blocker PTX was used to assess the amount of spontaneous activity and to correct for drift or rundown over the course of the experiment (see Figure 2—figure supplement 1).
(§6) BZD positive modulators alone evoke channel opening with extremely low probability ([Campo-Soria et al., 2006]), thus necessitating coapplication with an agonist to obtain robust currents from wild-type receptors ([Germann et al., 2019]). However, dissecting the effects of BZDs on either agonist binding or channel gating is severely challenged in the presence of an agonist because the two processes are intimately coupled ([Colquhoun, 1998]).
as §2, §3

[5] = molecular target: T4, α1L9'T/K278Aβ2γ2L receptors (L9'T/K278A) (Rattus norvegicus, UniProt P18508+P62813+P63138, INS375LLRMFSFK/K305A/L290T); format: cell-based
T4 construct: expressed in transfected cells; host or cells: Xenopus laevis oocytes injected with mRNA (α:β:γ 1:1:10)
Source text: as §5, §6, §2, §3

[6] = molecular target: T5, α1L9'T/L276Aβ2γ2L GABAA receptor (L9'T/L276A) (Rattus norvegicus, UniProt P18508+P62813+P63138, INS375LLRMFSFK/L290T/L303A); format: cell-based
T5 construct: expressed in transfected cells; host or cells: Xenopus laevis oocytes injected with mRNA (α:β:γ 1:1:10)
Source text: as §5, §6, §2, §3

[7] = molecular target: T6, α1L9'Tβ2γ2L GABAA receptor (L9'T) (Rattus norvegicus, UniProt P18508+P62813+P63138, INS375LLRMFSFK/L290T); format: cell-based
T6 construct: expressed in transfected cells; host or cells: Xenopus laevis oocytes injected with mRNA (α:β:γ 1:1:10)
Source text: as §5, §6, §2, §3

[8] = molecular target: T7, α1L9'T/Y281Aβ2γ2L GABAA receptor (L9'T/Y281A) (Rattus norvegicus, UniProt P18508+P62813+P63138, INS375LLRMFSFK/L290T/Y308A); format: cell-based
T7 construct: expressed in transfected cells; host or cells: Xenopus laevis oocytes injected with mRNA (α:β:γ 1:1:10)
Source text: as §5, §6, §2, §3

[9] = molecular target: T8, α1L9'T/P277Aβ2γ2L GABAA receptor (L9'T/P277A) (Rattus norvegicus, UniProt P18508+P62813+P63138, INS375LLRMFSFK/L290T/P304A); format: cell-based
T8 construct: expressed in transfected cells; host or cells: Xenopus laevis oocytes injected with mRNA (α:β:γ 1:1:10)
Source text: as §5, §6, §2, §3

[10] = molecular target: T9, α1L9'T/V279Aβ2γ2L receptors (L9'T/V279A) (Rattus norvegicus, UniProt P18508+P62813+P63138, INS375LLRMFSFK/L290T/V306A); format: cell-based
T9 construct: expressed in transfected cells; host or cells: Xenopus laevis oocytes injected with mRNA (α:β:γ 1:1:10)
Source text: as §5, §6, §2, §3

[11] = molecular target: T10, α1V279Aβ2γ2L (V279A) receptors (Rattus norvegicus, UniProt P18508+P62813+P63138, INS375LLRMFSFK/V306A); experiment: Two-electrode voltage clamp of receptors expressed in Xenopus laevis oocytes (V279A); format: cell-based
T10 construct: expressed in transfected cells; host or cells: Xenopus laevis oocytes injected with mRNA (α:β:γ 1:1:10)
Source text: as §2, §3, §4

[12] = molecular target: T11, α1β2γ2L (wild-type) GABAA receptors (Rattus norvegicus, UniProt P18508+P62813+P63138, INS375LLRMFSFK); experiment: Two-electrode voltage clamp of receptors expressed in Xenopus laevis oocytes (wild-type); format: cell-based; conditions: WT; 10 μM GABA + 1 μM FG-7142
T11 construct: expressed in transfected cells; host or cells: Xenopus laevis oocytes injected with mRNA (α:β:γ 1:1:10)
Source text: as §2
as §3, with “Briefly, currents were baseline subtracted to correct for drift and then scaled by a linear fit to the peak of each PTX response to correct for rundown (Figure 2—figure supplement 1).” left out

T6 sequence (P62813 28-455 L290T): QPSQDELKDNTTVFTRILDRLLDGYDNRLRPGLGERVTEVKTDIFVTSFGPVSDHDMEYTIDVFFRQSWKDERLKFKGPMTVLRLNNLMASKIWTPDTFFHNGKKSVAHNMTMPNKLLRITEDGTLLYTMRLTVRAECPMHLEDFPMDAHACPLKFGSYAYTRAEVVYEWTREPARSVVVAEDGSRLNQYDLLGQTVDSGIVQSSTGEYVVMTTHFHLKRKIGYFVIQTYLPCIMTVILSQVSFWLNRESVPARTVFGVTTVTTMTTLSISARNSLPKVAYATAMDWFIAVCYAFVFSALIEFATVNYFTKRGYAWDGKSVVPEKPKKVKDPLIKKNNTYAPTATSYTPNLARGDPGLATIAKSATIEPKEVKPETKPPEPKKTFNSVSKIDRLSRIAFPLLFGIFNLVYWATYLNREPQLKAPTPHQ
T6 sequence (P63138 25-474 limits assumed, stated change not applied): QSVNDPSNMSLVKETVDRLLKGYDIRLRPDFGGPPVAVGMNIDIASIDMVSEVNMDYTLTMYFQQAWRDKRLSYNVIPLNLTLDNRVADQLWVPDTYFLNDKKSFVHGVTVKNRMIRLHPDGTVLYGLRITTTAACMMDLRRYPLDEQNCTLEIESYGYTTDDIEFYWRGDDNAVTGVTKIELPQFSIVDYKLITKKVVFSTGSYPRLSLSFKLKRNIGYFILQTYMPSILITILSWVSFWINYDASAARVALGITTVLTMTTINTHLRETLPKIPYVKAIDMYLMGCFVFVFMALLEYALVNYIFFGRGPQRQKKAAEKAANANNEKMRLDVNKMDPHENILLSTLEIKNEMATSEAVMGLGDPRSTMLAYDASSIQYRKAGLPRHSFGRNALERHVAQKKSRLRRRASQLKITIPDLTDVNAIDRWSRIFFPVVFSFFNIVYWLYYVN
T6 sequence (P18508 with tags, fused parts or gaps INS375LLRMFSFK): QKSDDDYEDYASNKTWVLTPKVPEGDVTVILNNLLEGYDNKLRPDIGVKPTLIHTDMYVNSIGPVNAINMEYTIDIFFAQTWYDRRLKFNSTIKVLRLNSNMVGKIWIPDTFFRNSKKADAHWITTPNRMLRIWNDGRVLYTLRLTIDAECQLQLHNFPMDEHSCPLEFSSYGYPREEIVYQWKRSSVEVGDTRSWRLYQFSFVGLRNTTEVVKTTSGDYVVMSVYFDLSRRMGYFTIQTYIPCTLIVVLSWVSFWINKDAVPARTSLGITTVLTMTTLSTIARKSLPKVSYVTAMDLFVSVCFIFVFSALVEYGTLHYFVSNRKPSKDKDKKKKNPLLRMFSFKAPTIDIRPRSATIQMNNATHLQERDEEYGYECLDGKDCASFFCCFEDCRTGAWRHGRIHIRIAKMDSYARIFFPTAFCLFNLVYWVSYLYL
T7 sequence (P62813 28-455 L290T/Y308A): as the sequence (P62813 28-455 L290T) above, with Y281A counted along it
T7 sequence (P63138 25-474 limits assumed, stated change not applied): as the sequence (P63138 25-474 limits assumed, stated change not applied) above
T7 sequence (P18508 with tags, fused parts or gaps INS375LLRMFSFK): as the sequence (P18508 with tags, fused parts or gaps INS375LLRMFSFK) above
T9 sequence (P62813 28-455 L290T/V306A): as the sequence (P62813 28-455 L290T) above, with V279A counted along it
T9 sequence (P63138 25-474 limits assumed, stated change not applied): as the sequence (P63138 25-474 limits assumed, stated change not applied) above
T9 sequence (P18508 with tags, fused parts or gaps INS375LLRMFSFK): as the sequence (P18508 with tags, fused parts or gaps INS375LLRMFSFK) above
T1 sequence (P62813 28-455 L290T/V306D): as the sequence (P62813 28-455 L290T) above, with V279D counted along it
T1 sequence (P63138 25-474 limits assumed, stated change not applied): as the sequence (P63138 25-474 limits assumed, stated change not applied) above
T1 sequence (P18508 with tags, fused parts or gaps INS375LLRMFSFK): as the sequence (P18508 with tags, fused parts or gaps INS375LLRMFSFK) above
T4 sequence (P62813 28-455 L290T/K305A): as the sequence (P62813 28-455 L290T) above, with K278A counted along it
T4 sequence (P63138 25-474 limits assumed, stated change not applied): as the sequence (P63138 25-474 limits assumed, stated change not applied) above
T4 sequence (P18508 with tags, fused parts or gaps INS375LLRMFSFK): as the sequence (P18508 with tags, fused parts or gaps INS375LLRMFSFK) above
T3 sequence (P62813 28-455 L290T/T310A): as the sequence (P62813 28-455 L290T) above, with T283A counted along it
T3 sequence (P63138 25-474 limits assumed, stated change not applied): as the sequence (P63138 25-474 limits assumed, stated change not applied) above
T3 sequence (P18508 with tags, fused parts or gaps INS375LLRMFSFK): as the sequence (P18508 with tags, fused parts or gaps INS375LLRMFSFK) above
T2 sequence (P62813 28-455 L290T/V306W): as the sequence (P62813 28-455 L290T) above, with V279W counted along it
T2 sequence (P63138 25-474 limits assumed, stated change not applied): as the sequence (P63138 25-474 limits assumed, stated change not applied) above
T2 sequence (P18508 with tags, fused parts or gaps INS375LLRMFSFK): as the sequence (P18508 with tags, fused parts or gaps INS375LLRMFSFK) above
T10 sequence (P62813 28-455 V306A): as the sequence (P62813 28-455 L290T) above, with T263L, V279A counted along it
T10 sequence (P63138 25-474 limits assumed, stated change not applied): as the sequence (P63138 25-474 limits assumed, stated change not applied) above
T10 sequence (P18508 with tags, fused parts or gaps INS375LLRMFSFK): as the sequence (P18508 with tags, fused parts or gaps INS375LLRMFSFK) above
T8 sequence (P62813 28-455 L290T/P304A): as the sequence (P62813 28-455 L290T) above, with P277A counted along it
T8 sequence (P63138 25-474 limits assumed, stated change not applied): as the sequence (P63138 25-474 limits assumed, stated change not applied) above
T8 sequence (P18508 with tags, fused parts or gaps INS375LLRMFSFK): as the sequence (P18508 with tags, fused parts or gaps INS375LLRMFSFK) above
T5 sequence (P62813 28-455 L290T/L303A): as the sequence (P62813 28-455 L290T) above, with L276A counted along it
T5 sequence (P63138 25-474 limits assumed, stated change not applied): as the sequence (P63138 25-474 limits assumed, stated change not applied) above
T5 sequence (P18508 with tags, fused parts or gaps INS375LLRMFSFK): as the sequence (P18508 with tags, fused parts or gaps INS375LLRMFSFK) above
T11 sequence (P62813 28-455, stated change not applied): as the sequence (P62813 28-455 L290T) above, with T263L counted along it
T11 sequence (P63138 25-474 limits assumed, stated change not applied): as the sequence (P63138 25-474 limits assumed, stated change not applied) above
T11 sequence (P18508 with tags, fused parts or gaps INS375LLRMFSFK): as the sequence (P18508 with tags, fused parts or gaps INS375LLRMFSFK) above

## CN1C(=O)CN=C(c2ccccc2)c2cc(Cl)ccc21 [DZ, diazepam]
[1]
  DZ hill slope: 0.58
  ΔΔGDZ (DZ's energetic contribution to pore gating, ΔG1 − ΔG0): −0.52 ± 0.02 (3) kcal/mol
[2]
  DZ hill slope: 0.90
  ΔΔGDZ (DZ's energetic contribution to pore gating, ΔG1 − ΔG0): −0.53 ± 0.10 (3) kcal/mol
[3]; read-out: KD (dissociation constant for DZ)
  Kd: 180 nM
[4]
  DZ hill slope: 1.42
  ΔΔGDZ (DZ's energetic contribution to pore gating, ΔG1 − ΔG0): −0.38 ± 0.04 (6) kcal/mol
[5]
  DZ hill slope: 0.97
  ΔΔGDZ (DZ's energetic contribution to pore gating, ΔG1 − ΔG0): −0.44 ± 0.08 (4) kcal/mol
[6]
  DZ hill slope: 0.61
  ΔΔGDZ (DZ's energetic contribution to pore gating, ΔG1 − ΔG0): −0.45 ± 0.04 (5) kcal/mol
[7]
  DZ hill slope: 1.10
  ΔΔGDZ (DZ's energetic contribution to pore gating, ΔG1 − ΔG0): −0.31 ± 0.04 (5) kcal/mol
[8]
  DZ hill slope: 1.14
  ΔΔGDZ (DZ's energetic contribution to pore gating, ΔG1 − ΔG0): −0.42 ± 0.07 (4) kcal/mol
[9]
  DZ hill slope: 1.24
  ΔΔGDZ (DZ's energetic contribution to pore gating, ΔG1 − ΔG0): −0.46 ± 0.20 (5) kcal/mol
[10]
  DZ hill slope: 0.98
  dV279A (factor by which DZ binding influences channel opening): 0.20
  ΔΔGDZ (DZ's energetic contribution to pore gating, ΔG1 − ΔG0): −1.11 ± 0.30 (5) kcal/mol
[11]; V279A vs wild-type, 1 μM DZ, EC20-25 (30 μM) or EC100 GABA
  DZ potentiation of GABA-evoked peak current responses: to a greater extent in V279A than in wild-type receptors
[11]; V279A, 1 μM DZ, EC100 GABA 3–30 mM
  DZ potentiation of currents evoked with a saturating concentration of GABA: potentiates V279A currents evoked with a saturating concentration of GABA

## CNC(=O)c1cc2c(cn1)[nH]c1ccccc12 [FG-7142]
[12]
  Effect of FG-7142 on responses to ~EC20-25 GABA: reduced
[11]; V279A, 30 μM GABA + 1 μM FG-7142, compared with WT
  Effect of FG-7142 on responses to ~EC20-25 GABA: to a slightly lesser extent in V279A

## NCCCC(=O)O [GABA]
[3]
  c (factor by which GABA binding influences channel opening): 0.0031

## picrotoxin [PTX]
[1]; L9'T/V279D, 1 mM PTX, saturating GABA, mean ± SD
  IPTX /IGABA-max (ratio of PTX-sensitive to maximal GABA-evoked current amplitude): 0.02 ± 0.005 (3)
[2]; L9'T/V279W, 1 mM PTX, saturating GABA, mean ± SD
  IPTX /IGABA-max (ratio of PTX-sensitive to maximal GABA-evoked current amplitude): 0.16 ± 0.05 (2)
[4]; L9'T/T283A, 1 mM PTX, saturating GABA, mean ± SD
  IPTX /IGABA-max (ratio of PTX-sensitive to maximal GABA-evoked current amplitude): 0.11 ± 0.03 (5)
[5]; L9'T/K278A, 1 mM PTX, saturating GABA, mean ± SD
  IPTX /IGABA-max (ratio of PTX-sensitive to maximal GABA-evoked current amplitude): 0.20 ± 0.06 (5)
[6]; L9'T/L276A, 1 mM PTX, saturating GABA, mean ± SD
  IPTX /IGABA-max (ratio of PTX-sensitive to maximal GABA-evoked current amplitude): 0.22 ± 0.09 (4)
[7]; L9'T, 1 mM PTX, saturating GABA, mean ± SD (# oocytes)
  IPTX /IGABA-max (ratio of PTX-sensitive to maximal GABA-evoked current amplitude): 0.36 ± 0.04 (5)
[8]; L9'T/Y281A, 1 mM PTX, saturating GABA, mean ± SD
  IPTX /IGABA-max (ratio of PTX-sensitive to maximal GABA-evoked current amplitude): 0.25 ± 0.07 (5)
[9]; L9'T/P277A, 1 mM PTX, saturating GABA, mean ± SD
  IPTX /IGABA-max (ratio of PTX-sensitive to maximal GABA-evoked current amplitude): 0.45 ± 0.03 (3)
[10]; L9'T/V279A, 1 mM PTX, saturating GABA, mean ± SD
  IPTX /IGABA-max (ratio of PTX-sensitive to maximal GABA-evoked current amplitude): 0.17 ± 0.04 (4)
